Legend:
Coagulation factor X = Coagulation factor X (Homo sapiens, UniProt P00742); assay: Binding affinity towards human factor Xa
Coagulation factor IX = Coagulation factor IX (Homo sapiens, UniProt P00740); assay: Binding affinity towards human factor IXa
Sequence of Coagulation factor IX (P00740 47-191 limits assumed): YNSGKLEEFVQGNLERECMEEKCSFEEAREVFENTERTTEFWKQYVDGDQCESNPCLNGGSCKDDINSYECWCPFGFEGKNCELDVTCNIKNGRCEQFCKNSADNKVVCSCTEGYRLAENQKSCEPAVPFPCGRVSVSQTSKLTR
Sequence of Coagulation factor IX (P00740 227-461 limits assumed): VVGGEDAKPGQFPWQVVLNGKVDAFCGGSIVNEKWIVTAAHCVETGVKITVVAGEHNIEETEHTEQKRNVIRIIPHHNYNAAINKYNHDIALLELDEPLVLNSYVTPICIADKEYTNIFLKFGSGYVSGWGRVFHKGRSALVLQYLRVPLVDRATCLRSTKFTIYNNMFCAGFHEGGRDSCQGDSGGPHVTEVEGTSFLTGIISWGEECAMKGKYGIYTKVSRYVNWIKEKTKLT

Sequence of Coagulation factor X (P00742 41-179 limits assumed): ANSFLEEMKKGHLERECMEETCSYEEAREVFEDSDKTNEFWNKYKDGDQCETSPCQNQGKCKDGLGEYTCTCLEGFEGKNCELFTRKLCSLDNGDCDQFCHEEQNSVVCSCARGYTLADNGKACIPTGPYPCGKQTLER
Sequence of Coagulation factor X (P00742 235-488 limits assumed): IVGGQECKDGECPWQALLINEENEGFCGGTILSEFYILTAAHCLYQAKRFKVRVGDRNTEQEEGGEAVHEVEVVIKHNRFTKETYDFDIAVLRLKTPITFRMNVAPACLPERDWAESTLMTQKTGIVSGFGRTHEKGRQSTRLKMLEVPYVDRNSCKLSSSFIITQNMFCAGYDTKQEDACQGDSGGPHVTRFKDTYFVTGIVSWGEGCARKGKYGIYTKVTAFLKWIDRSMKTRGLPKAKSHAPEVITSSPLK

Row | SMILES | Ki (Coagulation factor X) [nM] | Ki (Coagulation factor IX) [nM]
1 | N=C(N)c1ccc2[nH]cc(CC(=O)Nc3ccc(-c4ccccc4S(N)(=O)=O)cc3)c2c1 | 3.2 | 6700
2 | N=C(N)c1ccc2[nH]cc(C(CC(=O)Nc3ccc(-n4cnc5ccccc54)cc3)Cc3ccccc3)c2c1 (stereo not given) | 36 | 250
3 | CC(C(=O)Nc1ccc(-n2cnc3ccccc32)cc1)c1c[nH]c2ccc(C(=N)N)cc12 (stereo not given) | 3 | 480
4 | N=C(N)c1ccc2[nH]cc(C(Cc3ccccc3)C(=O)NCc3ccc(-n4cnc5ccccc54)cc3)c2c1 (stereo not given) | 72 | 310
5 | Cn1cc(C(Cc2ccccc2)C(=O)Nc2ccc(-n3cnc4ccccc43)cc2F)c2cc(C(=N)N)ccc21 (stereo not given) | 160 | 360
6 | N=C(N)c1ccc2[nH]cc(C(CCc3ccccc3)C(=O)Nc3ccc(-n4cnc5ccccc54)cc3F)c2c1 (stereo not given) | 6.1 | 240
7 | N=C(N)c1ccc2[nH]cc(C(Cc3ccc4ccccc4c3)C(=O)Nc3ccc(-n4cnc5ccccc54)cc3F)c2c1 (stereo not given) | 28 | 98
8 | N=C(N)c1ccc2[nH]cc(C(Cc3ccc(N)cc3)C(=O)Nc3ccc(-n4cnc5ccccc54)cc3)c2c1 (stereo not given) | 4 | 75
9 | N=C(N)c1ccc2[nH]cc(C(Cc3ccccc3)C(=O)Nc3ccc(-n4cnc(-c5ccccc5)c4)cc3)c2c1 (stereo not given) | 79 | 270
10 | N=C(N)c1ccc2[nH]cc([C@H](Cc3ccccc3)C(=O)Nc3ccc(-n4cnc5ccccc54)cc3F)c2c1 | 26 | 820
11 | N=C(N)c1ccc2[nH]cc([C@@H](Cc3ccccc3)C(=O)Nc3ccc(-n4cnc5ccccc54)cc3F)c2c1 | 1.3 | 19
12 | N=C(N)c1ccc2[nH]cc(C(Cc3ccccc3)C(=O)NCc3ccc(C(=O)Nc4nc5ccccc5[nH]4)cc3)c2c1 (stereo not given) | 810 | 930
13 | N=C(N)c1ccc2[nH]cc(C(Cc3ccccc3)C(=O)Nc3ccc(-c4ccccc4S(N)(=O)=O)cc3)c2c1 (stereo not given) | 0.63 | 660
14 | N=C(N)c1ccc2[nH]cc(CC(Cc3ccccc3)C(=O)Nc3ccc(-n4cnc5ccccc54)cc3)c2c1 (stereo not given) | 45 | 130
15 | CS(=O)(=O)c1ccc2nc(NC(=O)c3ccc(CNC(=O)C(Cc4ccccc4)c4c[nH]c5ccc(C(=N)N)cc45)cc3)[nH]c2c1 (stereo not given) | 1100 | 660
16 | N=C(N)c1ccc2[nH]cc(C(CC3CC3)C(=O)Nc3ccc(-n4cnc5ccccc54)cc3)c2c1 (stereo not given) | 14 | 3800
17 | N=C(N)c1ccc2[nH]cc(C(Cc3ccc(NC(=O)c4ccccc4)cc3)C(=O)Nc3ccc(-n4cnc5ccccc54)cc3)c2c1 (stereo not given) | 18 | 270
18 | CCC(C(=O)Nc1ccc(-n2cnc3ccccc32)cc1)c1c[nH]c2ccc(C(=N)N)cc12 (stereo not given) | 2.8 | 160
19 | N=C(N)c1ccc2[nH]cc(C(Cc3cccc(C(=O)O)c3)C(=O)Nc3ccc(-n4cnc5ccccc54)cc3F)c2c1 (stereo not given) | 1.8 | 59
20 | CC(C)(C(=O)Nc1ccc(-n2cnc3ccccc32)cc1)c1c[nH]c2ccc(C(=N)N)cc12 | 2.2 | 750
21 | N=C(N)c1ccc2[nH]cc(C(Cc3ccc(NS(=O)(=O)c4ccccc4)cc3)C(=O)Nc3ccc(-n4cnc5ccccc54)cc3)c2c1 (stereo not given) | 19 | 130
22 | N=C(N)c1ccc2[nH]cc(C(Cc3cccnc3)C(=O)Nc3ccc(-n4cnc5ccccc54)cc3)c2c1 (stereo not given) | 7 | 1200
23 | N=C(N)c1ccc2[nH]cc(C(Cc3ccccc3)C(=O)NCc3cccc(C(=O)Nc4nc5ccccc5[nH]4)c3)c2c1 (stereo not given) | 2600 | 1900
24 | N=C(N)c1ccc2ccn(C(Cc3ccccc3)C(=O)Nc3ccc(-n4cnc5ccccc54)cc3F)c2c1 (stereo not given) | 5.6 | 300
25 | N=C(N)c1ccc2[nH]cc(C(Cc3ccccc3)C(=O)Nc3ccc(-n4cnc5ccccc54)cc3F)c2c1 (racemic) | 2.5 | 63
